Where two headings read alike, the source gives them in different places.

A short description of data set [1]: In vitro metabolism: human liver microsome (HLM) half-life. Conditions: human liver microsomes, pH 7.4, human liver microsomes. The data set is classed as in vitro ADME. The method, then:
In vitro metabolism experiments were carried out in the hepatic microsomal fractions from man. Transplant-quality human liver tissue was obtained from the International Institute for the Advancement of Medicine (Exton, Pa., USA). Microsomes were prepared according to the method described in Biochemical Pharmacology, […], 48, 2147-2156 and stored at −80° C. The concentrations of protein and cytochrome P450 were determined by standard methods described in Journal of Biological Chemistry, 1951, 193, 265-275 and Journal of Biological Chemistry, 1964, 239, 2370-2378.
Microsomal incubations (1.5 ml) were prepared containing 0.5 μM cytochrome P450, 200 mM phosphate buffer (pH 7.4), 0.1 M MgCl2, 0.1 M isocitric acid, 1 unit/ml isocitrate dehydrogenase and 20 mM β-NADP. Compounds under study were added after a 5 min preincubation at 37° C. to give an initial substrate concentration of 1 μM. The mixture was incubated at 37° C. and samples (100 μl) were removed for analysis for up to 60 min. Metabolism in samples was terminated by the addition of NaOH (0.1 M) containing an internal standard (chosen to have similar physicochemical properties to compounds under study), followed by extraction into ethyl acetate (2 ml). The extracts were evaporated to dryness and analysed by LC-MS/MS (Hewlett Packard HP1100 binary pump, Hypersil HS100 C18, 5 cm by 4.6 mm internal diameter, 5 μm column using a mobile phase of 2 mM ammonium acetate in 90:10 methanol/water, aqueous portion adjusted to pH 4 with glacial acetic acid, and a flowrate of 1 ml/min). The mass spectrometer was a Sciex API 2000 with TurbolonSpray interface using a positive ion multiple reaction monitoring (MRM) detection mode. Nitrogen was used as curtain, nebuliser, TurbolonSpray and collision gases, and the TurbolonSpray temperature was 100° C. Typical voltages were as follows: IS=5.2 kV; RNG=380 V; Q0=−10 V; IQ1=−11 V; ST=−15;RO1=−11 V; MU=gain adjusted as per Sciex user manual. Collision energy was 55 eV for high MRM, OR=65 V. Dwell time was 200 msec with a 50 msec pause. Data was acquired using MSExpress v 1.1 and processed using Macquan 1.5 (PE Sciex)). Disappearance rate constants (k) in human microsomal preparations were determined by linear regression of the log ratio (compound under study/internal standard) versus time. The in vitro human microsomal half-lives were determined according to the equation […]=In 2/k.
For orientation: Liver microsomes are a subcellular fraction often used to study metabolism.

Another data set addresses T1, cGMP PDE5 (Homo sapiens, UniProt O76074).
T1 construct: The required PDE enzymes were isolated from a variety of sources, including human corpus cavernosum, human platelets; from tissue; host or cells: human corpus cavernosum tissue or human platelets
Briefly: In vitro cGMP PDE5 inhibitory activity (IC50). The data set is classed as biochemical. The method, then: The compounds of the present invention are potent and selective cGMP PDE5 inhibitors. In vitro PDE inhibitory activities against cyclic guanosine 3′,5′-monophosphate (cGMP) and cyclic adenosine 3′,5′-monophosphate (cAMP) phosphodiesterases were determined by measurement of their IC50 values (the concentration of compound required for 50% inhibition of enzyme activity).
The required PDE enzymes were isolated from a variety of sources, including human corpus cavernosum, human platelets, human cardiac ventricle, human skeletal muscle and human and canine retina, essentially by the method of W. J. Thompson and M. M. Appleman (Biochem., 1971, 10, 311). In particular, the cGMP-specific PDE (PDE5) and the cGMP-inhibited cAMP PDE (PDE3) were obtained from human corpus cavernosum tissue or human platelets; the cGMP-stimulated PDE (PDE2) was obtained from human corpus cavernosum or human platelets; the calcium/calmodulin (Ca/CAM)-dependent PDE (PDE1) from human cardiac ventricle; the cAMP-specific PDE (PDE4) from recombinant clone or human skeletal muscle; and the photoreceptor PDE (PDE6) from canine or human retina. Phosphodiesterases 7-11 were generated from full length human recombinant clones transfected into SF9 cells.
Assays were performed either using a modification of the “batch” method of W. J. Thompson et al. (Biochem., 1979, 18, 5228) or using a scintillation proximity assay for the direct detection of AMP/GMP using a modification of the protocol described by Amersham pic under product code TRKQ7090/7100. In summary, the effect of PDE inhibitors was investigated by assaying a fixed amount of enzyme in the presence of varying inhibitor concentrations and low substrate, (cGMP or cAMP in a 3:1 ratio unlabelled to [^3H]-labeled at a conc ˜½ Km) such that IC50 ≅Ki. The final assay volume was made up to 102 μl with assay buffer [20 mM Tris-HCl pH 7.4, 5 mM MgCl2, 1 mg/ml bovine serum albumin]. Reactions were initiated with enzyme, incubated for 30-60 min at 30° C. to give <30% substrate turnover and terminated with 50 μl yttrium silicate SPA beads (containing 3 mM of the respective unlabelled cyclic nucleotide for PDEs 3, 9 and 11). Plates were resealed and shaken for 20 min, after which the beads were allowed to settle for 30 min in the dark and then counted on a TopCount plate reader (Packard, Meriden, Conn.). Radioactivity units were converted to % activity of an uninhibited control (100%), plotted against inhibitor concentration and inhibitor IC50 values obtained using the ‘Fit Curve’ Microsoft Excel extension or inhouse equivalent.

The mark [2] stands for this setting: bound stated, read-out: HLM half-lifes.
[3] abbreviates: bounds for groups of Examples, read-out: IC50 values for the PDE5 enzyme.
Setting [4] is: in vitro cGMP PDE5 inhibitory activity, Table 1, read-out: IC50.
Setting [5] is: initial substrate concentration 1 μM, 37° C., Table 2, read-out: HLM t1/2.

One may read the IC50 as the concentration that inhibits the measured activity by half. Take `CCCOc1ccc(S(C)(=O)=O)cc1-c1nc2c(CC)nn(Cc3ccccn3)c2c(=O)[nH]1` [Example 11, 3-Ethyl-5-[5-(methylsulfonyl)-2-propoxyphenyl]-1-(2-pyridinylmethyl)-1,6-dihydro-7H-pyrazolo[4,3-d]pyrimidin-7-one]: the half-life at 1 μM in data set [1] (setting [2]) is at least 30 min. Besides, the IC50 is under 10 nM on cGMP PDE5 (setting [3]) and 1.4 nM on cGMP PDE5 (setting [4]).

For orientation: melting point means the temperature of the solid-liquid transition. As to `CCCOc1ccc(S(C)(=O)=O)cc1-c1nc2c(CC)n(CC3CC3)nc2c(=O)[nH]1` [Example 12, 2-(Cyclopropylmethyl)-3-ethyl-5-[5-(methylsulfonyl)-2-propoxyphenyl]-2,6-dihydro-7H-pyrazolo[4,3-d]pyrimidin-7-one], the melting point was 233 to 234 °C. Further, in data set [1] (setting [2]), the half-life at 1 μM is at least 30 min. Moreover, the half-life at 1 μM in data set [1] (setting [5]) was over 120 min. For the same compound, the IC50 on cGMP PDE5 (setting [3]) was under 10 nM. At cGMP PDE5 (setting [4]), the IC50 came out at 1 nM.

`CCCCOc1ccc(S(C)(=O)=O)cc1-c1nc2c(CC)n(CCOC)nc2c(=O)[nH]1` [Example 2, 5-[2-Butoxy-5-(methylsulfonyl)phenyl]-3-ethyl-2-(2-methoxyethyl)-2,6-dihydro-7H-pyrazolo[4,3-d]pyrimidin-7-one] returned a melting point of 174 to 176 °C. In addition, the half-life at 1 μM in data set [1] (setting [2]) is at least 30 min. Also, the 50% inhibitory concentration (IC50) on cGMP PDE5 (setting [3]) was under 10 nM. Besides, the IC50 on cGMP PDE5 (setting [4]) came out at 6.5 nM.

`CCCOc1ccc(S(C)(=O)=O)cc1-c1nc2c(CC)nn(C[C@@H]3CCCN3C)c2c(=O)[nH]1` [Example 18, 3-Ethyl-1-{[(2S)-1-methylpyrrolidinyl]methyl}-5-[5-(methylsulfonyl)-2-propoxyphenyl]-1,6-dihydro-7H-pyrazolo[4,3-d]pyrimidin-7-one] showed a melting point of 211 to 215 °C. Moreover, the half-life at 1 μM in data set [1] (setting [2]) was at least 30 min. Besides, the IC50 on cGMP PDE5 (setting [3]) was under 10 nM. In addition, the IC50 on cGMP PDE5 (setting [4]) was 5.4 nM.

For `CCCCOc1ccc(S(C)(=O)=O)cc1-c1nc2c(CC)n(C3CN(C(C)C)C3)nc2c(=O)[nH]1` [Example 19, 5-[2-Butoxy-5-(methylsulfonyl)phenyl]-3-ethyl-2-(1-isopropyl-3-azetidinyl)-2,6-dihydro-7H-pyrazolo[4,3-d]pyrimidin-7-one], the melting point fell in the range of 209 to 213 °C. The half-life at 1 μM in data set [1] (setting [2]) is at least 30 min. For the same compound, on cGMP PDE5 (setting [3]), the IC50 was under 10 nM. Besides, at cGMP PDE5 (setting [4]), the IC50 was determined as 6.6 nM.

`CCc1c2nc(-c3cc(S(C)(=O)=O)ccc3OCC(C)C)[nH]c(=O)c2nn1C[C@H]1CCCN1C` [Example 14, 3-Ethyl-5-[2-isobutoxy-5-(methylsulfonyl)phenyl]-2-{[(2R)-1-methylpyrrolidinyl]methyl}-2,6-dihydro-7H-pyrazolo[4,3-d]pyrimidin-7-one] returned a melting point of 178 to 180 °C. Moreover, in data set [1] (setting [2]), the half-life at 1 μM was at least 30 min. Further, on cGMP PDE5 (setting [3]), the IC50 was under 10 nM. In addition, at cGMP PDE5 (setting [4]), the IC50 turned out to be 8.3 nM.

As to `CCc1c2nc(-c3cc(S(C)(=O)=O)ccc3OCC(C)C)[nH]c(=O)c2nn1Cc1nccn1C` [Example 9, 3-Ethyl-5-[2-isobutoxy-5-(methylsulfonyl)phenyl]-2-[(1-methyl-1H-imidazol-2-yl)methyl]-2,6-dihydro-7H-pyrazolo[4,3-d]pyrimidin-7-one], the melting point was 253 to 254 °C. Further, the half-life at 1 μM in data set [1] (setting [2]) was at least 30 min. Besides, the IC50 on cGMP PDE5 (setting [3]) is under 10 nM. In addition, the IC50 on cGMP PDE5 (setting [4]) stood at 3.95 nM.

For the compound `CCCc1nn(C)c2c(=O)[nH]c(-c3cc(S(C)(=O)=O)ccc3OCC)nc12` [Example 1, 5-[2-Ethoxy-5-(methylsulfonyl)phenyl]-1-methyl-3-propyl-1,6-dihydro-7H-pyrazolo[4,3-d]pyrimidin-7-one], the melting point fell in the range of 235 to 236 °C. Besides, in data set [1] (setting [2]), the half-life at 1 μM is at least 30 min. Also, the half-life at 1 μM in data set [1] (setting [5]) worked out at 67 min. Further, the IC50 on cGMP PDE5 (setting [3]) was under 10 nM. Further, the IC50 on cGMP PDE5 (setting [4]) was 5.6 nM.
